These molecules were tested against Neuronal acetylcholine receptor; alpha4/beta2 (Rattus norvegicus, UniProt P09483+P12390) (assay: Nicotinic acetylcholine receptor binding activity was determined by ability to displace [3H]- (-) cytisine binding from whole rat brain synaptic membranes.).
Sequence of Neuronal acetylcholine receptor; alpha4/beta2 (P09483 whole entry): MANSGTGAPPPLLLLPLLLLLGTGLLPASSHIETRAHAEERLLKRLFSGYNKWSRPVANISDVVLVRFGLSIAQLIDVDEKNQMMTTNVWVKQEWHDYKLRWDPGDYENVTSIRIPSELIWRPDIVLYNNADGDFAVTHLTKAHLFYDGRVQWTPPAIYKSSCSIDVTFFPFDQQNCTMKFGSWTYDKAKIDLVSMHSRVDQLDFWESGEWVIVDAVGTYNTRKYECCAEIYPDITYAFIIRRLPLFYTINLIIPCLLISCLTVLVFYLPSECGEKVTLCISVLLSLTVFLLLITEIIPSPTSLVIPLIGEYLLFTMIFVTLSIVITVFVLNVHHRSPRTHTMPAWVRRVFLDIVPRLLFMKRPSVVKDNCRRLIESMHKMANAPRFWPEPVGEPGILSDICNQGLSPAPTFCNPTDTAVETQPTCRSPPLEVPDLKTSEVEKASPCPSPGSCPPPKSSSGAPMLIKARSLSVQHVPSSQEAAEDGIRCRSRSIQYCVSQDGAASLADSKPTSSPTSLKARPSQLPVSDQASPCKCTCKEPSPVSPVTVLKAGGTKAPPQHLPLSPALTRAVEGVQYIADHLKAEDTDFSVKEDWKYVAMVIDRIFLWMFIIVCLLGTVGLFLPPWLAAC
Sequence of Neuronal acetylcholine receptor; alpha4/beta2 (P12390 whole entry): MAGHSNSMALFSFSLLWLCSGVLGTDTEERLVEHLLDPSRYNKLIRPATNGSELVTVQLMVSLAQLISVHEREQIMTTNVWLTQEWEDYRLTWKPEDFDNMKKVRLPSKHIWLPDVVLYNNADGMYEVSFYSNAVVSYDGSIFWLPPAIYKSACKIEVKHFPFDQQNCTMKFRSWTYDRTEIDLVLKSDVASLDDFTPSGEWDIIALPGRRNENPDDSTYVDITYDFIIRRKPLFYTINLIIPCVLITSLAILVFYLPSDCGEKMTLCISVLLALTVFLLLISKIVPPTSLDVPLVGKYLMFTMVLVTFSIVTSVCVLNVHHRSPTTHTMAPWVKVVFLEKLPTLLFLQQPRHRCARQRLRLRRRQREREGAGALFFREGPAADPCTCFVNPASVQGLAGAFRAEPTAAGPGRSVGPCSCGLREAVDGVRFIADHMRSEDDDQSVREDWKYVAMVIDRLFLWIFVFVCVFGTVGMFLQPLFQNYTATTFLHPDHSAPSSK

Structure (SMILES) | Ki [µM]
CN1CC[C@@H](Oc2cccnc2)C1 | 0.00444
CN1CCC(Oc2ccccn2)C1 (configuration not stated) | > 10
CN1CCC[C@H]1COc1cccnn1 | 0.0421
c1ccc(OCCN2CCCC2)nc1 | 0.16
CN1CCC[C@H]1COc1cnccn1 | 0.0163
Clc1ccc(OCCN2CCCC2)nn1 | 1.3
CN1CCC(Oc2ccc(Cl)nn2)C1 (configuration not stated) | 0.0464
CN1CC[C@H]1COc1cccnn1 | 0.0282
CN1CC[C@H]1COc1ccc(Cl)nn1 | 0.0638
CN1CC[C@H](Oc2cccnc2)C1 | 0.00267
CN1CCC[C@H]1COc1ccccn1 | 0.495
c1cnc(OCCN2CCCC2)cn1 | 0.56
CN1CCC[C@@H]1COc1ccc(Cl)nn1 | 0.0853
CN1CCC[C@H]1COc1ncccn1 | 1.22
c1ncc(OC[C@@H]2CCN2)cn1 | 0.00013
CN1CCC(OCc2cccnc2)C1 (configuration not stated) | 11.9
CN1CCC[C@@H]1COc1cnccn1 | 0.406
CN1CC[C@H]1COc1cncnc1 | 0.00654
Clc1ccc(OC[C@@H]2CCN2)nn1 | 0.0154
CN1CCC(Oc2cnccn2)C1 (configuration not stated) | 0.359
CN1CCC[C@H]1COc1ccc(Cl)nn1 | 0.029
c1cncc(OCCN2CCCC2)c1 | 0.24

Reference: ChEMBL document CHEMBL1131987, “Structure-activity studies on a novel series of cholinergic channel activators based on a heteroaryl ether framework” (Bioorg Med Chem Lett, 1999)
